Measured values as given in ChEMBL document CHEMBL1201862, “PubChem BioAssay data set” (2004).
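Cultured in 96-well plates, cells were exposed to test compound for 48 hours across five concentrations. At the GI50, growth is halved.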 Activity calls are given as the source filed them. Rule as the data show it: active = GI50 up to about 1.1 µM and inactive = higher.

Columns and labels:
Test in all cases: NCI-60 cell line screen, 48 h
A498 = test system: A498
A549 = test system: A549
COLO 205 = test system: COLO 205
DLD-1 = test system: DLD-1
HOP-62 = test system: HOP-62
HT-29 = test system: HT-29
M14 = test system: M14
MOLT-4 = test system: MOLT-4
NCI-H23 = test system: NCI-H23
NCI-H460 = test system: NCI-H460
NCI-H522 = test system: NCI-H522
OVCAR-3 = test system: OVCAR-3
SF-268 = test system: SF-268
SF-295 = test system: SF-295
SN12C = test system: SN12C
ACHN = test system: ACHN
BT-549 = test system: BT-549
Hs-578T = test system: Hs-578T
MCF7 = test system: MCF7
MDA-MB-231 = test system: MDA-MB-231

Measured: GI50

O=c1c2cc(-c3ccccc3)sc2nc2sc(-c3ccccc3)nn12
inactive: A498 > 100 µM | A549 > 100 µM | COLO 205 > 100 µM | DLD-1 > 100 µM | HOP-62 85.3 µM | HT-29 > 100 µM | M14 > 100 µM | MOLT-4 > 100 µM | NCI-H23 > 100 µM | NCI-H460 > 100 µM | NCI-H522 > 100 µM | OVCAR-3 > 100 µM | SF-268 > 100 µM | SF-295 > 100 µM | SN12C > 100 µM

Cc1ccc2[nH]c(=O)c(C(C#N)c3ccccc3)nc2c1 (stereo unspecified)
inactive: A498 > 100 µM | A549 35.5 µM | ACHN 50.9 µM | COLO 205 27 µM | DLD-1 42.6 µM | HOP-62 > 100 µM | HT-29 32.8 µM | M14 41.8 µM | MOLT-4 20.9 µM | NCI-H23 60.8 µM | NCI-H460 72.3 µM | NCI-H522 32.7 µM | OVCAR-3 23.6 µM | SF-268 32.6 µM | SF-295 30.4 µM | SN12C 49.5 µM

Cc1ccccc1N1C(=O)/C(=C/c2ccc(N(CCC#N)CCC#N)cc2)N=C1c1cc([N+](=O)[O-])ccc1Cl
inactive: A498 > 100 µM | ACHN > 100 µM | COLO 205 18.8 µM | DLD-1 79.1 µM | HOP-62 25.6 µM | HT-29 > 100 µM | M14 > 100 µM | MOLT-4 25.5 µM | NCI-H23 > 100 µM | NCI-H460 > 100 µM | NCI-H522 > 100 µM | OVCAR-3 59.3 µM | SF-268 > 100 µM | SF-295 31 µM | SN12C > 100 µM

Cc1ccc(NC(=O)CC(=O)n2nc(C)c(/N=N/c3ccccc3C(=O)O)c2C)cc1
inactive: A498 > 100 µM | A549 > 100 µM | COLO 205 > 100 µM | DLD-1 > 100 µM | HOP-62 > 100 µM | HT-29 > 100 µM | M14 > 100 µM | MOLT-4 > 100 µM | NCI-H23 > 100 µM | NCI-H460 > 100 µM | NCI-H522 > 100 µM | OVCAR-3 > 100 µM | SF-268 > 100 µM | SF-295 > 100 µM | SN12C > 100 µM

CC(=O)c1cccc(NC(=O)C(=O)C(C2OC(=O)c3ccccc32)[N+](=O)[O-])c1 (stereo unspecified)
inactive: A498 > 100 µM | A549 > 100 µM | ACHN > 100 µM | COLO 205 > 100 µM | DLD-1 > 100 µM | HOP-62 > 100 µM | HT-29 > 100 µM | M14 > 100 µM | MOLT-4 > 100 µM | NCI-H23 > 100 µM | NCI-H460 > 100 µM | OVCAR-3 > 100 µM | SF-268 > 100 µM | SF-295 > 100 µM | SN12C > 100 µM

COc1cc(/C=N/N=C(\N)NO)c([N+](=O)[O-])cc1OC
inactive: A498 37.7 µM | A549 26.3 µM | ACHN 14.8 µM | COLO 205 36.1 µM | DLD-1 56 µM | HOP-62 52.7 µM | HT-29 30.1 µM | M14 41.1 µM | MOLT-4 27.1 µM | NCI-H23 32.4 µM | NCI-H460 12.6 µM | NCI-H522 13.3 µM | OVCAR-3 34 µM | SF-268 25.2 µM | SF-295 30.6 µM | SN12C 27 µM

Cc1[nH]c2ccccc2c1C1Cc2ccccc2N1C(=O)/C=C/C(=O)O (stereo unspecified)
inactive: A498 > 100 µM | A549 > 100 µM | ACHN > 100 µM | COLO 205 > 100 µM | DLD-1 > 100 µM | HOP-62 > 100 µM | HT-29 > 100 µM | M14 > 100 µM | MOLT-4 > 100 µM | NCI-H23 > 100 µM | NCI-H460 20 µM | NCI-H522 > 100 µM | OVCAR-3 > 100 µM | SF-268 > 100 µM | SF-295 > 100 µM | SN12C > 100 µM

N#Cc1c(N)oc2cc3c(C#N)c(N)oc3cc12
inactive: A549 > 100 µM | ACHN > 100 µM | COLO 205 > 100 µM | DLD-1 > 100 µM | HOP-62 > 100 µM | HT-29 > 100 µM | M14 > 100 µM | MOLT-4 > 100 µM | NCI-H23 > 100 µM | NCI-H460 > 100 µM | NCI-H522 > 100 µM | OVCAR-3 > 100 µM | SF-268 > 100 µM | SF-295 > 100 µM | SN12C > 100 µM

Cc1cccc(/C=N/NC(=S)NC(C)(C)C)n1
inactive: A498 > 100 µM | A549 > 100 µM | ACHN 35.6 µM | BT-549 > 100 µM | COLO 205 6.14 µM | HOP-62 98.9 µM | HT-29 3.12 µM | Hs-578T > 100 µM | M14 88.7 µM | MCF7 18.5 µM | MDA-MB-231 34.6 µM | MOLT-4 4.72 µM | NCI-H23 > 100 µM | NCI-H460 85.1 µM | NCI-H522 14.5 µM | OVCAR-3 30.8 µM | SF-268 41 µM | SF-295 > 100 µM | SN12C > 100 µM

OC1c2ccccc2C2C(O)c3ccccc3C12 (stereo unspecified)
inactive: A549 > 100 µM | ACHN > 100 µM | COLO 205 > 100 µM | DLD-1 > 100 µM | HOP-62 > 100 µM | HT-29 > 100 µM | M14 > 100 µM | MOLT-4 > 100 µM | NCI-H23 > 100 µM | NCI-H460 > 100 µM | NCI-H522 > 100 µM | OVCAR-3 > 100 µM | SF-268 > 100 µM | SF-295 > 100 µM | SN12C > 100 µM

O=C(/C=C/c1ccc(O)c(O)c1)OCC(OC(=O)/C=C/c1ccc(O)c(O)c1)C(=O)O (stereo unspecified)
inactive: A498 > 100 µM | A549 > 100 µM | ACHN > 100 µM | BT-549 > 100 µM | COLO 205 > 100 µM | HOP-62 70.5 µM | HT-29 > 100 µM | Hs-578T > 100 µM | M14 > 100 µM | MCF7 > 100 µM | MDA-MB-231 > 100 µM | MOLT-4 63.4 µM | NCI-H23 > 100 µM | NCI-H460 86.9 µM | NCI-H522 84.7 µM | OVCAR-3 55.2 µM | SF-268 > 100 µM | SF-295 > 100 µM | SN12C > 100 µM

CC(C)(C)c1cc(-c2cc(C(C)(C)C)[nH]n2)[nH]n1
inactive: A498 > 100 µM | A549 > 100 µM | ACHN > 100 µM | BT-549 > 100 µM | COLO 205 > 100 µM | HOP-62 > 100 µM | HT-29 > 100 µM | Hs-578T > 100 µM | M14 > 100 µM | MCF7 > 100 µM | MDA-MB-231 > 100 µM | MOLT-4 96.2 µM | NCI-H23 > 100 µM | NCI-H460 > 100 µM | NCI-H522 > 100 µM | OVCAR-3 > 100 µM | SF-268 > 100 µM | SF-295 > 100 µM | SN12C > 100 µM

C1=N\c2ccc(cc2)-c2ccc(cc2)/N=C\c2ccccc2OCc2cccc(n2)COc2ccccc2/1
inactive: A498 65.9 µM | A549 72.8 µM | ACHN 21.3 µM | BT-549 32.7 µM | COLO 205 > 100 µM | HOP-62 5.27 µM | HT-29 > 100 µM | Hs-578T 13.1 µM | M14 36.4 µM | MCF7 > 100 µM | MDA-MB-231 34 µM | MOLT-4 > 100 µM | NCI-H23 15.1 µM | NCI-H460 71.6 µM | NCI-H522 23.8 µM | OVCAR-3 > 100 µM | SF-268 20.6 µM | SF-295 18.5 µM | SN12C > 81.3 µM

O=C(O)CC1OCC=C2C[N+]3([O-])CCC45c6ccccc6NC4C1C2CC53 (stereo unspecified)
inactive: A498 > 100 µM | A549 > 100 µM | ACHN > 100 µM | BT-549 > 100 µM | COLO 205 > 100 µM | HOP-62 > 100 µM | HT-29 > 100 µM | Hs-578T > 100 µM | M14 > 100 µM | MCF7 > 100 µM | MDA-MB-231 > 100 µM | MOLT-4 > 100 µM | NCI-H23 > 100 µM | NCI-H460 > 100 µM | NCI-H522 > 100 µM | OVCAR-3 > 100 µM | SF-268 > 100 µM | SF-295 > 100 µM | SN12C > 100 µM

Cc1ccc(O)cc1.Cc1cccc(O)c1.Cc1ccccc1O [CRESOL]
inactive: A498 > 100 µM | A549 > 100 µM | ACHN > 100 µM | BT-549 > 100 µM | COLO 205 > 100 µM | HOP-62 > 100 µM | HT-29 > 100 µM | Hs-578T 4.75 µM | M14 > 100 µM | MCF7 > 100 µM | MDA-MB-231 > 100 µM | MOLT-4 88.7 µM | NCI-H23 > 100 µM | NCI-H460 > 100 µM | NCI-H522 8.34 µM | OVCAR-3 > 100 µM | SF-268 > 100 µM | SF-295 > 100 µM | SN12C > 100 µM

COC(=O)c1sc2c(Cl)c(Cl)sc2c1Cl
inactive: A498 > 100 µM | A549 > 100 µM | ACHN > 100 µM | BT-549 > 100 µM | COLO 205 > 100 µM | HOP-62 30.7 µM | HT-29 > 100 µM | Hs-578T > 100 µM | M14 > 100 µM | MCF7 50.5 µM | MDA-MB-231 > 100 µM | MOLT-4 > 100 µM | NCI-H23 > 100 µM | NCI-H460 > 100 µM | NCI-H522 > 100 µM | OVCAR-3 93.8 µM | SF-268 > 100 µM | SF-295 77.4 µM | SN12C > 100 µM
